In patent US20260138969A1 (Korea Research Institute of Chemical Technology, priority 2023, published 2026):

Biological target: T1, recombinant human ASK1 protein (Homo sapiens, UniProt Q99683)
T1 sequence (Q99683 1-1374): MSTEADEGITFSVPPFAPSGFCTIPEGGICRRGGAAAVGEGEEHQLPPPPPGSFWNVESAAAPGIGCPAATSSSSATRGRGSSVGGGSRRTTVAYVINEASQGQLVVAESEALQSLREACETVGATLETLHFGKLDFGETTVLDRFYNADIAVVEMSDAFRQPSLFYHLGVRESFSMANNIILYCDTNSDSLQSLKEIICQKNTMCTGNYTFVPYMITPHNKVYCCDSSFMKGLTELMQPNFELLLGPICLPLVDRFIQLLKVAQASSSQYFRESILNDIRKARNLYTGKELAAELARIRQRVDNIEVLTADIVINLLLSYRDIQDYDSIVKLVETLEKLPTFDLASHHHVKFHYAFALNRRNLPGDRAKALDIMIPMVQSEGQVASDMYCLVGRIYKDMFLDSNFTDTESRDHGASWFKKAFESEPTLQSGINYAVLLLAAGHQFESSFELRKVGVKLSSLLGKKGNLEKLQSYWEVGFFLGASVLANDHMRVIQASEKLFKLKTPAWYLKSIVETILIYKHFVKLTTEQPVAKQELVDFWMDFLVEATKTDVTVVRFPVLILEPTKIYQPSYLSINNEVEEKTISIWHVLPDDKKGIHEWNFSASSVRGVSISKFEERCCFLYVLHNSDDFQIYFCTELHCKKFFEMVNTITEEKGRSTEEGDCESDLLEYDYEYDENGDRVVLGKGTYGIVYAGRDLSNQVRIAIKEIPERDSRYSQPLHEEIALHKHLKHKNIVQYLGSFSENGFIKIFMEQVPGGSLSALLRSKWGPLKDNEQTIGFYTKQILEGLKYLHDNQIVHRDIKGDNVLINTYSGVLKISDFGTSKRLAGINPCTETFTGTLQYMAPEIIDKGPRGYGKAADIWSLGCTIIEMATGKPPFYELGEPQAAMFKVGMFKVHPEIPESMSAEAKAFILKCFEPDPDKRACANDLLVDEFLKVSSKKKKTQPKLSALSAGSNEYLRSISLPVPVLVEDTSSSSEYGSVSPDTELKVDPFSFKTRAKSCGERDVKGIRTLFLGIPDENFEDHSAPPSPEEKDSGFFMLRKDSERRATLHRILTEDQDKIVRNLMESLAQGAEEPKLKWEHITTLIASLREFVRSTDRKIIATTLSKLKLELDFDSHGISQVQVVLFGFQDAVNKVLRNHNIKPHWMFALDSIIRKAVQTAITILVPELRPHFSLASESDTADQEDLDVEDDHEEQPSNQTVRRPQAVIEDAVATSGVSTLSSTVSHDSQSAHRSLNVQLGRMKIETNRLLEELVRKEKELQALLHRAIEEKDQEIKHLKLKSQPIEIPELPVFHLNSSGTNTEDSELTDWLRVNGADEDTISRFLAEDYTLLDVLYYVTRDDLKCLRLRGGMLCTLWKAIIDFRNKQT
Assay: Evaluation of ASK1 inhibition activity ([gamma-33P]-ATP, scintillation counting)
Type: biochemical
Details: not given
Method: The recombinant human ASK1 protein was initiated by adding a mixture of Mg/ATP to the reaction solution (8 mM MOPS PH 7.0, 0.2 mM EDTA, 0.33 mg/mL myelin basic protein, 10 mM Mg Acetate and [gamma-33P]-ATP), and the reaction was terminated by adding 0.5% phosphoric acid after 40 min at room temperature.

| SMILES | IC50 [µM] |
| --- | --- |
| Cc1cc(F)c(C(=O)Nc2cccc(-n3nnc4c3CCCCCC4)n2)cc1-n1cnc(C2CC2)c1 [Example 5, 5-(4-cyclopropyl-1H-imidazole-1-yl)-2-fluoro-N-(6-(4,5,6,7,8,9-hexahydro-1H-cycloocta[d][1,2,3]triazole-1-yl)pyridine-2-yl)-4-methylbenzamide] | 0.198 |
| Cc1cc(F)c(C(=O)Nc2cccc(-n3nnc4ccccc43)n2)cc1-n1cnc(C2CC2)c1 [Example 1, N-(6-(1H-benzo[d][1,2,3]triazole-1-yl)pyridine-2-yl)-5-(4-cyclopropyl-1H-imidazole-1-yl)-2-fluoro-4-methylbenzamide] | 0.235 |

Same assay, conditions: 0.5 uM; activity of group without compound set at 100%; read-out: Remaining kinase activity (%) at 0.5 uM

| SMILES | remaining activity at 0.5 µM [%] |
| --- | --- |
| CCOc1cc(C)c(-n2cnc(C3CC3)c2)cc1C(=O)Nc1cccc(-n2nnc3c2CCCC3)n1 [Example 11, 5-(4-cyclopropyl-1H-imidazol-1-yl)-2-ethoxy-4-methyl-N-(6-(4,5,6,7-tetrahydro-1H-benzo[d][1,2,3]triazol-1-yl)pyridin-2-yl)benzamide] | 29 |
| COc1cc(C)c(-n2cnc(C3CC3)c2)cc1C(=O)Nc1cccc(-n2nnc3c2CCCC3)n1 [Example 9, 5-(4-cyclopropyl-1H-imidazol-1-yl)-2-methoxy-4-methyl-N-(6-(4,5,6,7-tetrahydro-1H-benzo[d][1,2,3]triazol-1-yl)pyridin-2-yl)benzamide] | 0 |
| O=C(Nc1cccc(-n2nnc3c2CCC3)n1)c1cc(-n2cnc(C3CC3)c2)ccc1OC(F)(F)F [Example 24, 5-(4-cyclopropyl-1H-imidazol-1-yl)-N-(6-(5,6-dihydrocyclopenta[d][1,2,3]triazol-1 (4H)-yl)pyridin-2-yl)-2-(trifluoromethoxy)benzamide] | 5 |
| COc1ccc(-n2cnc(C3CC3)c2)cc1C(=O)Nc1cccc(-n2nnc3c2CCC3)n1 [Example 6, 5-(4-cyclopropyl-1H-imidazol-1-yl)-N-(6-(5,6-dihydrocyclopenta[d][1,2,3]triazol-1 (4H)-yl)pyridin-2-yl)-2-methoxybenzamide] | 0 |
| CC(C)Oc1ccc(-n2cnc(C3CC3)c2)cc1C(=O)Nc1cccc(-n2nnc3c2CCCC3)n1 [Example 19, 5-(4-cyclopropyl-1H-imidazol-1-yl)-2-isopropoxy-N-(6-(4,5,6,7-tetrahydro-1H-benzo[d][1,2,3]triazol-1-yl)pyridin-2-yl)benzamide] | 9 |
| CCOc1ccc(-n2cnc(C3CC3)c2)cc1C(=O)Nc1cccc(-n2nnc3c2CCC3)n1 [Example 16, 5-(4-cyclopropyl-1H-imidazol-1-yl)-N-(6-(5,6-dihydrocyclopenta[d][1,2,3]triazol-1 (4H)-yl)pyridin-2-yl)-2-ethoxybenzamide] | 11 |
| CCOc1ccc(-n2cnc(C3CC3)c2)cc1C(=O)Nc1cccc(-n2nnc3c2CCCC3)n1 [Example 17, 5-(4-cyclopropyl-1H-imidazol-1-yl)-2-ethoxy-N-(6-(4,5,6,7-tetrahydro-1H-benzo[d][1,2,3]triazol-1-yl)pyridin-2-yl)benzamide] | 2 |
| O=C(Nc1cccc(-n2nnc3c2CCC3)n1)c1cc(-n2cnc(C3CC3)c2)ccc1OCC(F)(F)F [Example 20, 5-(4-cyclopropyl-1H-imidazol-1-yl)-N-(6-(5,6-dihydrocyclopenta[d][1,2,3]triazol-1 (4H)-yl)pyridin-2-yl)-2-(2,2,2-trifluoroethoxy)benzamide] | 3 |
| O=C(Nc1cccc(-n2nnc3c2CCCC3)n1)c1cc(-n2cnc(C3CC3)c2)ccc1OC(F)(F)F [Example 25, 5-(4-cyclopropyl-1H-imidazol-1-yl)-N-(6-(4,5,6,7-tetrahydro-1H-benzo[d][1,2,3]triazol-1-yl)pyridin-2-yl)-2-(trifluoromethoxy)benzamide] | 14 |
| COc1ccc(-n2cnc(C3CC3)c2)cc1C(=O)Nc1cccc(-n2nnc3c2CCCC3)n1 [Example 7, 5-(4-cyclopropyl-1H-imidazol-1-yl)-2-methoxy-N-(6-(4,5,6,7-tetrahydro-1H-benzo[d][1,2,3]triazol-1-yl)pyridin-2-yl)benzamide] | 2 |
| COc1cc(C)c(-n2cnc(C3CC3)c2)cc1C(=O)Nc1cccc(-n2nnc3c2CCC3)n1 [Example 8, 5-(4-cyclopropyl-1H-imidazol-1-yl)-N-(6-(5,6-dihydrocyclopenta[d][1,2,3]triazol-1 (4H)-yl)pyridin-2-yl)-2-methoxy-4-methylbenzamide] | 0 |
| O=C(Nc1cccc(-n2nnc3c2CCCC3)n1)c1cc(-n2cnc(C3CC3)c2)ccc1OC1CC1 [Example 23, 2-cyclopropoxy-5-(4-cyclopropyl-1H-imidazol-1-yl)-N-(6-(4,5,6,7-tetrahydro-1H-benzo[d][1,2,3]triazol-1-yl)pyridin-2-yl)benzamide] | 38 |
| CCOc1cc(C)c(-n2cnc(C3CC3)c2)cc1C(=O)Nc1cccc(-n2nnc3c2CCC3)n1 [Example 10, 5-(4-cyclopropyl-1H-imidazol-1-yl)-N-(6-(5,6-dihydrocyclopenta[d][1,2,3]triazol-1 (4H)-yl)pyridin-2-yl)-2-ethoxy-4-methylbenzamide] | 14 |
| O=C(Nc1cccc(-n2nnc3c2CCCC3)n1)c1cc(-n2cnc(C3CC3)c2)ccc1OCC(F)(F)F [Example 21, 5-(4-cyclopropyl-1H-imidazol-1-yl)-N-(6-(4,5,6,7-tetrahydro-1H-benzo[d][1,2,3]triazol-1-yl)pyridin-2-yl)-2-(2,2,2-trifluoroethoxy)benzamide] | 16 |
| Cc1cc(OC(C)C)c(C(=O)Nc2cccc(-n3nnc4c3CCCC4)n2)cc1-n1cnc(C2CC2)c1 [Example 13, 5-(4-cyclopropyl-1H-imidazol-1-yl)-2-isopropoxy-4-methyl-N-(6-(4,5,6,7-tetrahydro-1H-benzo[d][1,2,3]triazol-1-yl)pyridin-2-yl)benzamide] | 9 |
| O=C(Nc1cccc(-n2nnc3c2CCC3)n1)c1cc(-n2cnc(C3CC3)c2)ccc1OC1CC1 [Example 22, 2-cyclopropoxy-5-(4-cyclopropyl-1H-imidazol-1-yl)-N-(6-(5,6-dihydrocyclopenta[d][1,2,3]triazol-1 (4H)-yl)pyridin-2-yl)benzamide] | 24 |
| CC(C)Oc1ccc(-n2cnc(C3CC3)c2)cc1C(=O)Nc1cccc(-n2nnc3c2CCC3)n1 [Example 18, 5-(4-cyclopropyl-1H-imidazol-1-yl)-N-(6-(5,6-dihydrocyclopenta[d][1,2,3]triazol-1 (4H)-yl)pyridin-2-yl)-2-isopropoxybenzamide] | 11 |
| Cc1cc(F)c(C(=O)Nc2cccc(-n3nnc4ccccc43)n2)cc1-n1cnc(C2CC2)c1 [Example 1, N-(6-(1H-benzo[d][1,2,3]triazole-1-yl)pyridine-2-yl)-5-(4-cyclopropyl-1H-imidazole-1-yl)-2-fluoro-4-methylbenzamide] | 14 |
| O=C(Nc1cccc(-n2nnc3c2CCCC3)n1)c1cc(-n2cnc(C3CC3)c2)ccc1OC(F)F [Example 27] | 4 |
| Cc1cc(OC(C)C)c(C(=O)Nc2cccc(-n3nnc4c3CCC4)n2)cc1-n1cnc(C2CC2)c1 [Example 12, 5-(4-cyclopropyl-1H-imidazol-1-yl)-N-(6-(5,6-dihydrocyclopenta[d][1,2,3]triazol-1 (4H)-yl)pyridin-2-yl)-2-isopropoxy-4-methylbenzamide] | 0 |
| Cc1cc(OC(F)F)c(C(=O)Nc2cccc(-n3nnc4c3CCCC4)n2)cc1-n1cnc(C2CC2)c1 [Example 15, 5-(4-cyclopropyl-1H-imidazol-1-yl)-2-(difluoromethoxy)-4-methyl-N-(6-(4,5,6,7-tetrahydro-1H-benzo[d][1,2,3]triazol-1-yl)pyridin-2-yl)benzamide] | 8 |
| Cc1cc(OC(F)F)c(C(=O)Nc2cccc(-n3nnc4c3CCC4)n2)cc1-n1cnc(C2CC2)c1 [Example 14, 5-(4-cyclopropyl-1H-imidazol-1-yl)-2-(difluoromethoxy)-N-(6-(5,6-dihydrocyclopenta[d][1,2,3]triazol-1 (4H)-yl)pyridin-2-yl)-4-methylbenzamide] | 1 |
